Consider 22 molecules from PubChem BioAssay (NCI).

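These data come from cells grown in 96-well plates and exposed to compound for 48 hours at five concentrations. TGI is the concentration that stops growth completely.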 Where a SMILES comes first, the peptide text is derived from it. The star is where a group is joined. Cbz = O=C(OCc1ccccc1)*

What all share (test): growth of human tumour cells (NCI), 48 h
Assay [1] concerns SF-268 CNS.
Assay [2] deals with NCI-H522 lung.
The subject of assay [3] is HS 578T breast.
Assay [4] deals with UACC-62 melanoma.
In assay [5] the test system is NCI-H460 lung.
Assay [6] relates to OVCAR-4 ovarian.
Assay [7] has as its system HCT-116 colon.
Assay [8] concerns COLO 205 colon.
The test system of assay [9] is A498 renal.
Assay [10] concerns SK-MEL-2 melanoma.
Assay [11] deals with HOP-62 NSCLC.
Assay [12] deals with TK-10 renal.
Assay [13] has as its system U251 CNS.

For `COc1ccc(NC2=NCCO2)c2ccccc12`, the TGI in assay [1], in [2], in [3], in assay [4], in assay [5] and in [6] was > 10 µM in each case. Further, the TGI in assay [7], in [8], in assay [9], in [10], in [11] and in assay [12] was > 10 µM in each case.

For the molecule `COC(=O)CCCCC/C(=C\C(=O)C(Cl)(Cl)Cl)OC`, the TGI is 86.3 µM in assay [1]; 41.1 µM in [2]; 90 µM in assay [13]; 97.1 µM in assay [3]; > 100 µM in assay [4]; 76.9 µM in assay [5]. The TGI in assay [6] is 42.1 µM; in [7], 49.6 µM; in assay [8], 57.7 µM; in assay [9], > 100 µM; in [10] it was 50 µM; in [11], > 100 µM. In assay [12], the TGI is 86.9 µM.

`CCC(=O)NCCc1c[nH]c2ccc(OC)cc12`: the TGI in assay [1], in [2], in assay [13], in assay [3], in assay [4] and in [5] was > 100 µM in each case. Besides, the TGI in [6], in assay [7], in [8], in assay [9], in assay [10] and in [11] was > 100 µM each time. The TGI in assay [12] was > 100 µM.

In the case of `Cc1[nH]c2ccccc2c1C=Nc1ccc(Oc2ccccc2)cc1`, the TGI was determined as 34.1 µM in [1]; 31.6 µM in assay [2]; 29.3 µM in assay [13]; 52 µM in [3]; 32 µM in assay [4]; 40 µM in assay [5]. The TGI in assay [6] stood at 34.6 µM; in assay [7], 31.3 µM; in assay [8] it was 30.1 µM; in [9], 37 µM; in [10], 34.3 µM; in [12], 30.2 µM.

`N#Cc1c(C#N)c(SSc2c(C#N)c(C#N)c(N)n2-c2ccccc2)n(-c2ccccc2)c1N`: the TGI was > 72 µM in assay [1]; > 100 µM in assay [2]; 42.4 µM in assay [13]; 55.2 µM in assay [3]; 46.4 µM in [4]; > 89.3 µM in assay [5]. For the same molecule, the TGI in [8] is 3.82 µM; in assay [9] it was 44.1 µM; in [10] it was 47.7 µM; in assay [11], > 69.1 µM; in [12], 3.29 µM.

For the molecule `Cc1cn(C2CC(N=[N+]=[N-])C(CO[Si](C)(C)C(C)(C)C)O2)c(=O)[nH]c1=O` (stereo not given), the TGI came out at 45.8 µM in [1]; 35.6 µM in assay [2]; 33 µM in assay [13]; 40.1 µM in [3]; 29.8 µM in assay [4]; 28.1 µM in [6]. For the same molecule, the TGI in assay [7] worked out at 29.6 µM; in assay [8] it was 35.6 µM; in assay [9] it was 30.7 µM; in assay [10], 33.8 µM; in assay [11] it was 34.1 µM; in assay [12], 30.5 µM.

For the molecule `O=C(NCc1ccccc1)c1cnc(Cl)cn1`, the TGI was > 100 µM in [1]; 4.35 µM in assay [2]; > 100 µM in assay [13]; > 100 µM in [3]; > 100 µM in assay [4]; > 100 µM in assay [5]. The TGI in [6], in [7], in assay [8], in assay [9], in assay [10] and in assay [12] was > 100 µM throughout.

For `CSCCCCCCCCCCOc1ccc(C=C2C(=C(C#N)C#N)c3ccccc3C2=C(C#N)C#N)cc1`, the TGI in assay [1] amounted to 34.2 µM; in assay [2] it was 38.2 µM; in assay [13], 31.2 µM; in assay [3], 44.6 µM; in [5], 32.2 µM; in assay [6] it was 41.3 µM. Further, the TGI is 34.2 µM in assay [7]; 33.1 µM in assay [9]; 36.7 µM in [10]; 32.2 µM in [11]; 36.1 µM in [12].

`COCN1C(=O)[C@@H]2CCCN2C(=O)c2cc([N+](=O)[O-])ccc21`: the TGI in [1] is > 100 µM; in assay [2], 44.6 µM; in assay [13] it was > 100 µM; in assay [3], > 100 µM; in assay [4] it was > 100 µM; in assay [6], > 100 µM. In addition, the TGI in assay [7], in assay [8], in assay [9], in [10], in assay [11] and in assay [12] was > 100 µM each time.

For the molecule `CC(=O)c1cn(-c2ccc(Cl)cc2)c(=O)c2c(N)n[nH]c12`, the TGI in assay [1], in assay [13], in [3], in assay [4], in [5] and in assay [6] was > 100 µM each time. In addition, the TGI in assay [7], in assay [8], in assay [9], in assay [10], in [11] and in assay [12] was > 100 µM throughout.

Regarding `CC(C)(C)OC(=O)NC(Cc1ccc([N+](=O)[O-])cc1)C(=O)NC(CCCCNC(=O)OCc1ccccc1)C(=O)ON1C(=O)CCC1=O` (stereo not given), the TGI in assay [1], in assay [2], in [13], in [3], in [4] and in [5] was > 100 µM in each case. The TGI in assay [6], in assay [7], in assay [8], in assay [9], in assay [11] and in assay [12] was > 100 µM throughout.

As to `CCOC(=O)C(C)NC(=O)C(C)NC(=O)C(C)NC(=O)C(C)NC(=O)C(C)NC(=O)C(C)NC(=O)C(C)NC(=O)OCc1ccccc1` (stereo not given) (Cbz-AAAAAAA-OEt; configuration not given here), the TGI in assay [1], in [2], in assay [13], in assay [3], in [4] and in [5] was > 100 µM in each case. For the same molecule, the TGI in assay [6], in assay [7], in assay [8], in assay [9], in [11] and in assay [12] was > 100 µM throughout.

Turning to `CC1(C)CC(=O)c2c(nc3ccc4ccccc4c3c2-c2ccc(NC(=O)CCCCC(=O)Nc3ccc(-c4c5c(nc6ccc7ccccc7c46)CC(C)(C)CC5=O)cc3)cc2)C1`, the TGI in assay [1], in assay [13], in [3], in assay [4], in assay [5] and in assay [7] was > 100 µM throughout. Also, the TGI in assay [8], in [9], in assay [10], in [11] and in assay [12] was > 100 µM in each case.

Regarding `CC(C)[Si](OC1=CCCCCC12C(=O)N(C)c1ccccc12)(C(C)C)C(C)C` (stereo not given), the TGI in assay [1] came to 48.1 µM; in assay [2], 33.7 µM; in assay [13] it was 36.3 µM; in assay [3], 61.6 µM; in assay [4], 59.2 µM; in assay [5] it was 38.4 µM. Moreover, the TGI in assay [6] was > 100 µM; in assay [8], 35.8 µM; in assay [9] it was 42.8 µM; in [10], 37.6 µM; in assay [11], 58.1 µM; in assay [12], 80.9 µM.

Regarding `CCC1(C)N=C(C(N)=O)c2ncn(N=C(C)C)c2N1` (stereo not given), the TGI in [1], in assay [2], in assay [13], in [3], in [4] and in [5] was > 100 µM throughout. The TGI in assay [6], in [7], in assay [8], in [9], in [11] and in assay [12] was > 100 µM each time.

On to `COc1cc2c(cc1OC)CCN=C2`, for which the TGI in assay [13], in assay [3], in assay [4], in assay [5], in assay [6] and in assay [7] was > 100 µM throughout. In addition, the TGI in assay [8], in assay [9], in assay [10], in assay [11] and in [12] was > 100 µM each time.

For the molecule `CC(C)(C)/C(O)=C\c1nc2cc(C(F)(F)F)ccc2[nH]c1=O`, the TGI in assay [1], in [2], in [13], in [3], in assay [4] and in [6] was > 100 µM throughout. In addition, the TGI in [7], in [8], in assay [9], in [10], in assay [11] and in assay [12] was > 100 µM throughout.

Consider `CCCc1c2c3ccccc3nc-2nc2ccccn12`, for which the TGI in [1] was 70.4 µM; in assay [2], > 100 µM; in [13], > 100 µM; in [3], > 100 µM; in [4], > 100 µM; in assay [5], > 100 µM. Moreover, the TGI in [6] is > 100 µM; in assay [8], > 100 µM; in assay [9] it was > 100 µM; in [10], > 100 µM; in assay [11], 90.7 µM; in [12] it was > 100 µM.

As to `NC(CCCCNc1ccn(C2OC(CO)C(O)C2O)c(=O)n1)C(=O)O` (stereo not given), the TGI in [1], in assay [2], in [13], in assay [3], in [4] and in [5] was > 100 µM in each case. For the same molecule, the TGI in assay [6], in assay [8], in [9], in assay [10] and in assay [12] was > 100 µM throughout.

As to `O=[N+]([O-])C1(C2([N+](=O)[O-])CCCC2)CCCC1`, the TGI in assay [1], in [2], in assay [13], in assay [3], in assay [4] and in assay [5] was > 100 µM in each case. Further, the TGI in assay [6], in [7], in [8], in assay [9], in assay [10] and in assay [12] was > 100 µM throughout.

For the molecule `CSc1c(C#N)c2n(c3ccccc3[n+]2C)c2ncccc12`, the TGI in assay [1] is 86.9 µM; in assay [2], 48.6 µM; in [13], 70.8 µM; in [3] it was > 100 µM; in assay [4], 38.9 µM; in assay [5] it was > 100 µM. For the same molecule, the TGI was 91.1 µM in assay [6]; > 100 µM in [7]; 54.2 µM in [8]; 84.6 µM in [9]; 39.7 µM in [10]; > 100 µM in [11].

Take `CCCCCCCCCN1CCC(=O)C(C(=O)OC)C1` (stereo not given): the TGI is 30.2 µM in [1]; 22 µM in [2]; 36.6 µM in assay [3]; 24.9 µM in [4]; 32.9 µM in assay [5]; 12.4 µM in assay [6]. The TGI in assay [7] was 26.9 µM; in [8] it was 30.8 µM; in assay [9] it was 52.7 µM; in [11], 31.3 µM; in assay [12] it was 31.4 µM.
